Measurements as given in patent publication US7538122B2, “Heterocyclic antiviral compounds” (Roche Palo Alto LLC, priority 2004, dated 2009).
Read-outs that look alike come from different tables or passages of the source.

Experiments:
[1] = target: T1, Human CCR5 receptor (Homo sapiens, UniProt P51681); assay: Human CCR5 receptor-ligand binding assay (125I chemokine displacement on CHO-Gα16-hCCR5 cells); settings: RT 2 h
T1 construct: expressed in transfected cells
Excerpt: Human CCR5 Receptor-Ligand Binding Assay Protocol
Human CCR5 receptor (Genebank ID: 29169292) was cloned into mammalian expression vector, pTarget (Promega). The construct was transfected into CHO-Gα16 cells by using Fugene Reagent (Roche). Clones were selected under antibiotic pressure (G418 and Hygromycin) and sorted 4 times with a fluorescence activates cell sorter and a monoclonal antibody specific for CCR5 receptor (BD Biosciences Pharmigen, Mab 2D7, Cat. No. 555993). The clone with highest expression (100,000 copies per cell) was chosen for the binding assays.
Adherent cells in […] tissue culture flask (˜90% confluent) were harvested using 1 mM EDTA in PBS (phosphate-buffered saline) without Ca^2+ and Mg^2+. Cells were washed twice with PBS containing no Ca^2+ and Mg^2+. CHO-Gα16-hCCR5 cells were then resuspended (1×10^6/ml) in ice cold binding buffer (50 mM HEPES, 1 mM CaCl2, 5 mM MgCl2, 0.5% BSA, 0.05% NaN3, pH 7.24), pH 7.4), supplemented with freshly made 0.5% BSA and 0.05% NaN3.
Eighty μl CHO-Gα16-hCCR5 (1×10^6/ml) cells were added to 96 well plates. All dilutions were made in binding buffer (50 mM HEPES, 1 mM CaCl2, 5 mM MgCl2, 0.5% BSA, 0.05% NaN3, pH 7.24).
The plates were incubated on a cell shaker at RT for 2 h with a final concentration of 0.1 nM ^125I RANTES or ^125I MIP-1α or ^125I MIP-1β. The compound dilutions were made in PBS, 1% BSA. Total reaction volume was 100 μl per well. The test compounds were added to the cells prior to the addition of radioligand.
After incubation, the cells were harvested onto GF/C filter plates using Packard cell harvester. Filters were pretreated with 0.3% PEI/0.2% BSA for 30 min. The filter plate was washed rapidly 5 times with 25 mM HEPES, 500 mM NaCl, 1 mM CaCl2 and 5 mM MgCl2 adjusted to pH 7.1. Plates were dried in oven (70° C.) for 20 min, added with 40 μl scintillation fluid and sealed with Packard TopSeal-A. Packard Top Count was used to measure of the radioactivity for 1 min per well.
Total binding was determined with control wells added with radioisotope and buffer and the non-specific binding was determined using an excess cold RANTES to some of the control wells. Specific binding was determined by subtracting the non-specific form total binding. Results are expressed as the percentage of specific ^125I RANTES binding. IC50 values were determined using varying concentrations of the test ligand in triplicates and the data was analyzed using GraphPad Prism (GraphPad, San Diego, Calif.).

[2] = 0.1 nM 125I MIP-1β, read-out: Binding IC50 Mip-1b
[3] = 0.1 nM 125I RANTES, read-out: Binding IC50 RANTES
[4] = 0.1 nM 125I MIP-1α, read-out: Binding IC50 Mip-1a

T1 sequence (P51681 whole entry): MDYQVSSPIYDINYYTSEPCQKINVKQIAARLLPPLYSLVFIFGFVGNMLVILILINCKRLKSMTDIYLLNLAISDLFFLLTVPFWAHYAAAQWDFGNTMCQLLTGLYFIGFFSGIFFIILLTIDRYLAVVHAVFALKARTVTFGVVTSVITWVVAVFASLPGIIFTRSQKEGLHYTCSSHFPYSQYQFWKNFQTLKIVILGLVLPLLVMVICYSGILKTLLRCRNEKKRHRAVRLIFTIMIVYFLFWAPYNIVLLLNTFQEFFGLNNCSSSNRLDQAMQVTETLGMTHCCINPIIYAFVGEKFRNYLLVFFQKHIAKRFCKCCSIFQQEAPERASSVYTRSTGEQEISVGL

Row | Compound | IC50 [1, 2] | IC50 [1, 3] | melting point | IC50 [1, 4]
1 | CCCCC1CN(CC2CCOCC2)C(=O)OC12CCN(C1(C)CCN(C(=O)c3c(C)ncnc3C)CC1)CC2 (stereo not shown) [Compound I-415, 5-Butyl-9-[1-(4,6-dimethyl-pyrimidine-5-carbonyl)-4-methyl-piperidin-4-yl]-3-(tetrahydro-pyran-4-ylmethyl)-1-oxa-3,9-diaza-spiro[5.5]undecan-2-one; compound with trifluoro-acetic acid] | < 1.5 nM | 7.7 nM | – | –
2 | CCCCC1N(CC2CCCCC2)C(=O)OC12CCN(C1(C)CCN(C(=O)c3c(C)ncnc3C)CC1)CC2 (stereo not shown) [Compound I-212, 4-Butyl-3-cyclohexylmethyl-8-[1-(4,6-dimethyl-pyrimidine-5-carbonyl)-4-methyl-piperidin-4-yl]-1-oxa-3,8-diaza-spiro[4.5]decan-2-one; compound with trifluoro-acetic acid] | – | 7.3 nM | – | –
3 | CCCCN1C(=O)C([C@@H](O)C2CCCCC2)NC(=O)C12CCN(C1CCN(C(=O)c3c(C)cccc3C)CC1)CC2 (stereo partly drawn) [Compound I-76, 1-Butyl-3-((S)-cyclohexyl-hydroxy-methyl)-9-[1-(2,6-dimethyl-benzoyl)-piperidin-4-yl]-1,4,9-triaza-spiro[5.5]undecane-2,5-dione] | – | – | 246.9 to 248 °C | –
4 | CCCC[C@@H]1N(CC2CCCCC2)C(=O)OC12CCN(C1CCN(C(=O)c3c(C)cccc3C)CC1)CC2 [Compound I-159, (S)-4-Butyl-3-cyclohexylmethyl-8-[1-(2,6-dimethyl-benzoyl)-piperidin-4-yl]-1-oxa-3,8-diaza-spiro[4.5]decan-2-one] | 10.5 nM | 5.1 nM | – | 4.5 nM
5 | 4-Butyl-8-[1-(2,6-dimethyl-benzoyl)-piperidin-4-yl]-3-(2-methyl-butyl)-1-oxa-3,8-diaza-spiro[4.5]decan-2-one; compound with trifluoro-acetic acid [Compound I-90] | 1.8 nM | 5.1 nM | – | –
6 | CCCCC1N(CC2CCCCC2)C(=O)OC12CCN(C1(C)CCN(C(=O)c3c(C)nn(Cc4ccccc4)c3C)CC1)CC2 (stereo not shown) [Compound I-214, 8-[1-(1-Benzyl-3,5-dimethyl-1H-pyrazole-4-carbonyl)-4-methyl-piperidin-4-yl]-4-butyl-3-cyclohexylmethyl-1-oxa-3,8-diaza-spiro[4.5]decan-2-one; compound with trifluoro-acetic acid] | – | 8.2 nM | – | –
7 | CCCCC1N(CC2CCCCC2)C(=O)OC12CCN(C1CCN(C(=O)c3c(C)cccc3C)CC1)CC2 (stereo not shown) [Compound I-1, 4-Butyl-3-cyclohexylmethyl-8-[1-(2,6-dimethyl-benzoyl)-piperidin-4-yl]-1-oxa-3,8-diaza-spiro[4.5]decan-2-one] | 13 nM | 14 nM | – | 18 nM
